The subject of experiment [1] is Puccinia triticina; synonym: Puccinia recondita f. sp. tritici (PUCCRT). The experiment is described as follows: Wheat brown rust (PUCCRT) whole-plant fungicidal test. The experiment is classed as in vivo. Conditions: topical; for pest or weed control at 121.5 g/ha: low volume (track spray) application, 121.5 g/H; for pest or weed control at 100 ppm: high volume application.

Experiment [2] deals with Mycosphaerella graminicola; anamorph: Septoria tritici (SEPTTR). Put plainly: Leaf blotch of wheat (SEPTTR) whole-plant fungicidal test. It counts as in vivo. Conditions: Zymoseptoria tritici, topical; for pest or weed control at 121.5 g/ha: low volume (track spray) application, 121.5 g/H; for pest or weed control at 100 ppm: high volume application.
[3] abbreviates: 24 h, 1 Day Protectant, read-out: Low Volume activity at 121.5 g/H PUCCRT 1DP (% disease control rating).
Setting [4] is: 72 h, 3 Day Curative, read-out: Low Volume activity at 121.5 g/H PUCCRT 3DC (% disease control rating).
Where [5] appears, read: 24 h, 1 Day Protectant, read-out: Low Volume activity at 121.5 g/H SEPTTR 1DP (% disease control rating).
Where [6] appears, read: 72 h, 3 Day Curative, read-out: Low Volume activity at 121.5 g/H SEPTTR 3DC (% disease control rating).
[7] abbreviates: 24 h, 1 Day Protectant, read-out: High Volume activity at 100 ppm PUCCRT 1DP (% disease control rating).
[8] abbreviates: 72 h, 3 Day Curative, read-out: High Volume activity at 100 ppm PUCCRT 3DC (% disease control rating).
Where [9] appears, read: 24 h, 1 Day Protectant, read-out: High Volume activity at 100 ppm SEPTTR 1DP (% disease control rating).
[10] abbreviates: 72 h, 3 Day Curative, read-out: High Volume activity at 100 ppm SEPTTR 3DC (% disease control rating).

Where two headings read alike, the source gives them in different places.

On to `CCOCC(=O)OCOc1c(OC)ccnc1C(=O)N[C@H]1CCC[C@H](Cc2ccc(C(F)(F)F)cc2)[C@@H](Cc2ccc(OC(F)(F)F)cc2)[C@H](C)OC1=O` [Compound 66], for which the pest or weed control at 121.5 g/ha in experiment [1] (setting [3]), in experiment [1] (setting [4]), in experiment [2] (setting [5]) and in experiment [2] (setting [6]) was less than 70% throughout.
As for `COc1ccnc(C(=O)N[C@H]2CCC[C@H](Cc3ccc(C(F)(F)F)cc3)[C@@H](Cc3ccc(OC(F)(F)F)cc3)[C@H](C)OC2=O)c1OC(C)=O` [Compound 67], the pest or weed control at 121.5 g/ha in experiment [1] (setting [3]), in experiment [1] (setting [4]), in experiment [2] (setting [5]) and in experiment [2] (setting [6]) was less than 70% throughout.
`COc1ccnc(C(=O)N[C@H]2CCC[C@H](Cc3ccccc3)[C@@H](Cc3ccc(OC(F)(F)F)cc3)[C@H](C)OC2=O)c1OCOC(C)=O` [Compound 68]: the pest or weed control at 121.5 g/ha in experiment [1] (setting [3]), in experiment [1] (setting [4]), in experiment [2] (setting [5]) and in experiment [2] (setting [6]) was less than 70% throughout.
Turning to `CCOCC(=O)OCOc1c(OC)ccnc1C(=O)N[C@H]1CCC[C@H](Cc2ccccc2)[C@@H](Cc2ccc(OC(F)(F)F)cc2)[C@H](C)OC1=O` [Compound 69], the pest or weed control at 121.5 g/ha is less than 70% in experiment [1] (setting [3]), less than 70% in experiment [1] (setting [4]), more than 70% in experiment [2] (setting [5]) and less than 70% in experiment [2] (setting [6]).
On to `COc1ccnc(C(=O)N[C@H]2CCC[C@H](CCCc3ccccc3)[C@@H](Cc3ccccc3)[C@H](C)OC2=O)c1OCOC(C)=O` [Compound 70], for which the pest or weed control at 121.5 g/ha in experiment [1] (setting [3]) is more than 70%; in experiment [1] (setting [4]), less than 70%; in experiment [2] (setting [5]), more than 70%; in experiment [2] (setting [6]), more than 70%.
For `CCCC[C@@H]1[C@@H](Cc2ccccc2)CCC[C@H](NC(=O)c2nccc(OC)c2O)C(=O)O[C@H]1C` [Compound 71, N-((3S,7R,8R,9S)-7-benzyl-8-butyl-9-methyl-2-oxooxonan-3-yl)-3-hydroxy-4-methoxypicolinamide], the pest or weed control at 100 ppm was more than 70% in experiment [1] (setting [7]), more than 70% in experiment [1] (setting [8]), more than 70% in experiment [2] (setting [9]) and less than 70% in experiment [2] (setting [10]).
In the case of `CCCC[C@@H]1[C@@H](Cc2ccc(C(F)(F)F)cc2)CCC[C@H](NC(=O)c2nccc(OC)c2O)C(=O)O[C@H]1C` [Compound 72], the pest or weed control at 100 ppm in experiment [1] (setting [7]) was more than 70%; in experiment [1] (setting [8]), less than 70%; in experiment [2] (setting [9]) it was more than 70%; in experiment [2] (setting [10]), less than 70%.
Take `COc1ccnc(C(=O)N[C@H]2CCC[C@H](CCC(C)C)[C@@H](Cc3ccccc3)[C@H](C)OC2=O)c1O` [Compound 73]: the pest or weed control at 100 ppm in experiment [1] (setting [7]) is more than 70%; in experiment [1] (setting [8]) it was less than 70%; in experiment [2] (setting [9]), more than 70%; in experiment [2] (setting [10]), more than 70%.
As to `COc1ccnc(C(=O)N[C@H]2CCC[C@H](Cc3ccccc3)[C@@H](Cc3ccccc3)[C@H](C)OC2=O)c1O` [Compound 74], the pest or weed control at 100 ppm in experiment [1] (setting [7]), in experiment [1] (setting [8]), in experiment [2] (setting [9]) and in experiment [2] (setting [10]) was more than 70% in each case.
`COc1ccnc(C(=O)N[C@H]2CCC[C@H](Cc3ccccc3)[C@@H](C3CCCC3)[C@H](C)OC2=O)c1O` [Compound 75]: the pest or weed control at 100 ppm is more than 70% in experiment [1] (setting [7]), less than 70% in experiment [1] (setting [8]), more than 70% in experiment [2] (setting [9]) and more than 70% in experiment [2] (setting [10]).
For `COc1ccnc(C(=O)N[C@H]2CCC[C@H](Cc3ccc(Cl)cc3)[C@@H](CC(C)C)[C@H](C)OC2=O)c1O` [Compound 76], the pest or weed control at 100 ppm is more than 70% in experiment [1] (setting [7]), less than 70% in experiment [1] (setting [8]), more than 70% in experiment [2] (setting [9]) and more than 70% in experiment [2] (setting [10]).

Source of the values: patent US20150322051A1, “Macrocyclic picolinamides as fungicides” (Dow AgroSciences LLC, priority 2014, published 2015).
